Test results: paper PMC8543028 (Infection and Drug Resistance, 2021)

Tested on: M. tuberculosis-209
Format: cell-based, Mycobacterium tuberculosis

O=[N+]([O-])c1ccc(/C(O)=C/C(=S)S)cc1 [Compound 11e, (Z)-3-hydroxy-3-(4-nitrophenyl)-prop-2-enedithioic acid]
MIC100 in Mtb-209: active
